Reference: US20230203031A1, “COMPOUNDS USEFUL FOR INHIBITING CDK7” (Eli Lilly and Company, priority 2020, published 2023)
Read-outs that look alike come from different tables or passages of the source.

Assays:
CDK7/CyclinH/Mat1 = CDK7/CyclinH/Mat1 (Homo sapiens, UniProt P50613); assay: Biochemical assay for inhibition of CDK7/CyclinH/MAT1 (radiolabel filter binding); settings: 100 µM ATP
cMyc in HCT116 cells = assay: cMyc cell based Acumen assay; settings: read-out: Relative IC50 for cMyc
Description: HCT116 cells (ATCC CCL-247) are cultured in McCoy’s 5 Å Medium Modified media supplemented with 10% FBS, 1% NaPyr, and 1% Pen/Strep and plated (prior to becoming 70% confluent) in 96-well flat-bottom plates at a density of 5,000 cells per well in 100 µL volume. The cells are then incubated overnight in a cell culture incubator (5% CO2, 95% Relative Humidity (RH), and 37° C.) and allowed to attach to the plate. The following morning the cells are dosed with compounds. Compound inhibitors are solubilized at 60 µM in culture medium containing 0.6% DMSO. Subsequently, compound serial dilutions (1:3) are prepared over a 60 µM to 0.003 µM range. Cells are dosed with the addition of 50 µL from serial dilution plate to assay plate containing cell attached with 100 µL of media producing a final DMSO concentration of 0.2% with a final compound concentration dose range between 20 µM and 0.001 µM. For max point media containing 0.2% of DMSO is used and for min point, a reference compound diluted at 0.83 µM final concentration in the growth media containing 0.2% DMSO is used. After dosing with compounds, the cell plates are incubated at 37° C. and 5% CO2 for 4 hours. Growth media is removed carefully and the cells are fixed by adding 100 µL of 4% para-formaldehyde for 30 minutes at RT. Cell are washed once with PBS and incubated with 100 µL of cold MeOH for 15 minutes at RT for cell permeation. Again cell are washed twice with PBS (100 µL/each) and blocked with 100 µL/well of 1% BSA/PBS for 30 minutes at RT. 50 µL of 1:1000 primary antibody (Anti-c-Myc antibody [Y69] Abcam cat# ab32072) dilution in 1% BSA/PBS are added per well, the plates sealed and incubated overnight at 4° C. The following day cells are washed three times with PBS (100 µL/well) and incubated with 50 µL/well of secondary antibody (1:2000 dilution, Goat anti-rabbit IgM ALEXA FLUOR™ 488) in PBS for 1 hour at RT. After wash 3× with PBS (100 µL/well), 100 µL of 50 µg/mL RNAase and 1:1000 propidium iodide (Invitrogene) dilution in PBS are added per well. Plates are sealed and incubated for 1 hour at RT on the bench (preserved from light). Plates are analyzed on Acumen on FL2 (mean intensity), and FL3 (total intensity). Fluorescence Plates are scanned with ACUMEN EXPLORER™ [Laser-scanning fluorescence microplate cytometer manufactured by TTP LABTECH LTD] to measure anti-phospho-carboxyl terminal domain at Serine 5 (pCTD). Image analysis is based on cellular fluorescent signals for identifying positive cells. pCTD (S5) positive cells are identified by mean intensity at 500-530 above the threshold. Total intensity at 575-640 from propidium iodide/DNA is used to identify individual cells. Assay output is % pCTD positive cells. The IC50 is determined by curve fitting to a four parameter logistic for each output using GENE DATA™.

[1] = system: phosphoCTD (S2) in HCT116 cells; assay: Phospho-carboxyl terminal domain (Ser2) p-CTD (S2) cell based Acumen assay; settings: read-out: relative IC50 for phosphoCTD (S2)
Description: HCT116 cells (ATCC CCL-247) are cultured in McCoy’s 5 Å Medium Modified media supplemented with 10% FBS, 1% NaPyr, and 1% Pen/Strep and plated (prior to becoming 70% confluent) in 96-well flat-bottom plates at a density of 5,000 cells per well in 100 µL volume. The cells are then incubated overnight in a cell culture incubator (5% CO2, 95% Relative Humidity (RH) and 37° C.) and allowed to attach to the plate. The following morning the cells are dosed with compounds. Compound inhibitors are first solubilized at 60 µM in culture medium containing 0.6% DMSO. Subsequently compound serial dilutions (1:3) are prepared over a 60 µM to 0.003 µM range. Cells are dosed with the addition of 50 µL from serial dilution plate to assay plate containing cells attached with 100 µL of media producing a final DMSO concentration of 0.2% with a final compound concentration dose range between 20 and 0.001 µM. For max point media containing 0.2% of DMSO is used and for min point, a reference compound diluted at 0.83 µM final concentration in the growth media containing 0.2% DMSO is used. After dosing with compounds, the cell plates are incubated at 37° C. and 5% CO2 for 4 hours. The growth media is removed carefully and the cells are fixed by adding 100 µL of 4% para-formaldehyde for 30 minutes at RT. Cells are washed once with PBS and incubated with 100 µL of cold MeOH for 15 minutes at RT for cell permeation. Cells are washed twice with PBS (100 µL/each) and blocked with 100 µL/well of 1% BSA/PBS for 30 minutes at RT. 50 µL of 1:1000 primary antibody (Anti-phospho CTD Ser2 Abcam, cat# ab5095-100) dilution in 1% BSA/PBS are added per well, the plates are sealed and incubated overnight at 4° C.
The following day cells are washed three times with PBS (100 µL/well) and incubated with 50 µL/well of secondary antibody (1:2000 dilution, Goat anti-rabbit IgM ALEXA FLUOR™ 488) in PBS for 1 hour at RT. After washing 3X with PBS (100 µL/well), 100 µL of 50 µg/mL RNAase and 1:1000 propidium iodide dilution in PBS are added per well. Plates are sealed and incubated 1 hour at RT on the bench (preserved from light). Plates are analyzed on Acumen on FL2 (mean intensity) and FL3 (total intensity). Fluorescence plates are scanned with ACUMEN EXPLORER™ [Laser-scanning fluorescence microplate cytometer manufactured by TTP LABTECH LTD] to measure anti-phospho-carboxyl terminal domain at Serine 2 (pCTD). Image analysis is based on cellular fluorescent signals for identifying positive cells. pCTD (S2) positive cells are identified by mean intensity at 500-530 above the threshold. Total intensity at 575-640 from propidium iodide/DNA is used to identify individual cells. Assay output is % pCTD positive cells.
The IC50 is determined by curve fitting to a four parameter logistic for each output using GENE DATA™.

[2] = IC50 after 3 hours of preincubation of CDK7 enzyme, 3 hours preincubation
[3] = IC50 in CDK7 without preincubation, no preincubation of enzyme with compound

Sequence of CDK7/CyclinH/Mat1 (P50613 whole entry): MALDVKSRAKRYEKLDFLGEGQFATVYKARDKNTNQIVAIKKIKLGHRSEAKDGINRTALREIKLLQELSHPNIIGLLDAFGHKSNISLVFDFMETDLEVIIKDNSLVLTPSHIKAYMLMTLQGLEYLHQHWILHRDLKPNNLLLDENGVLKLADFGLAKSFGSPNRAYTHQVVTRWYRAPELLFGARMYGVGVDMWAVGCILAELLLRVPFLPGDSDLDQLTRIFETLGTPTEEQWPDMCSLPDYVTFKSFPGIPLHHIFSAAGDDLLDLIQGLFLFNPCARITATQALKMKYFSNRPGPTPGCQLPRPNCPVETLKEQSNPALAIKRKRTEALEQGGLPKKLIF
Sequence of CDK7/CyclinH/Mat1 (P51946 whole entry partner): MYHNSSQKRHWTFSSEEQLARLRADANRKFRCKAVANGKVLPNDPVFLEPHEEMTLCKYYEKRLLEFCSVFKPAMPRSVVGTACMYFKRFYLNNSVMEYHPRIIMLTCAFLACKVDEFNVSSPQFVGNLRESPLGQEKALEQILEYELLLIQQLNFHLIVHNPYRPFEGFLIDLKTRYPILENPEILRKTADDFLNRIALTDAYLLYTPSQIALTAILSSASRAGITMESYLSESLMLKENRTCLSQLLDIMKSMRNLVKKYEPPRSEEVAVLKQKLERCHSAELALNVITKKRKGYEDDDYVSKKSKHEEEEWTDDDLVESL
Sequence of CDK7/CyclinH/Mat1 (P51948 whole entry partner): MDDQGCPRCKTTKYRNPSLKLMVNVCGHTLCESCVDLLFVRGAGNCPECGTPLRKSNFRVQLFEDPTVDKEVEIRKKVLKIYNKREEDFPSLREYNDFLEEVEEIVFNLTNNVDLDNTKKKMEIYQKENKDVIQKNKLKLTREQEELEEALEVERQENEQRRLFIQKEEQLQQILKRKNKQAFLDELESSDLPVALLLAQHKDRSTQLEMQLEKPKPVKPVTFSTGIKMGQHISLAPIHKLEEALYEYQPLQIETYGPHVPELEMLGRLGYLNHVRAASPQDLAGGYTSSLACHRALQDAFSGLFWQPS

Row | Structure (SMILES) | IC50 (CDK7/CyclinH/Mat1; [2]) | IC50 (CDK7/CyclinH/Mat1; [3]) | IC50 (cMyc in HCT116 cells; Homo sapiens, HCT-116, 4 h) | IC50 ([1]; Homo sapiens, HCT-116, 4 h) | IC50 (cMyc in HCT116 cells; 4 hours) | IC50 ([1]; 4 hours)
1 | C=CC(=O)N1CCO[C@H](CN2CCC(Nc3cc(C(C)F)cn4c(C(C)C)cnc34)CC2)C1 (single isomer, unassigned) [Example 1] | 14.3 nM | 123 nM | 82 nM | 5.73 µM | – | –
2 | C=CC(=O)N1CCO[C@H](CN2CCC(Nc3cc(C(C)F)cn4c(C(C)C)cnc34)CC2)C1 (single isomer, unassigned) [Example 2] | 26.6 nM | 256 nM | – | – | 94.7 nM | 6.36 µM
3 | C=CC(=O)N1CCO[C@H](CN2CCC(Nc3cc(C(C)O)cn4c(C(C)C)cnc34)CC2)C1 (single isomer, unassigned) [Example 4] | 14.3 nM | 155 nM | – | – | 38 nM | 3.71 µM
4 | C=CC(=O)N1CCO[C@H](CN2CCC(Nc3cc(C(F)(F)F)cn4c(C(C)C)cnc34)CC2)C1 [Example 8, 1-[(2R)-2-[[4-[[3-isopropyl-6-(trifluoromethyl)imidazo[1,2-a]pyridin-8-yl]amino]-1-piperidyl]methyl]morpholin-4-yl]prop-2-en-1-one] | 5.74 nM | 65.6 nM | 24.5 nM | 2.59 µM | – | –

Results, then the molecule that gave them:

Row | IC50 (CDK7/CyclinH/Mat1; [2]) | IC50 (CDK7/CyclinH/Mat1; [3]) | IC50 (cMyc in HCT116 cells; Homo sapiens, HCT-116, 4 h) | IC50 ([1]; Homo sapiens, HCT-116, 4 h) | IC50 (cMyc in HCT116 cells; 4 hours) | IC50 ([1]; 4 hours) | Structure (SMILES)
5 | 6.25 nM | 84.5 nM | 13.8 nM | 2.92 µM | – | – | [2H]CC([2H])(C)c1cnc2c(NC3CCN(C[C@@H]4CN(C(=O)C=C)CCO4)CC3)cc(C(F)(F)F)cn12 (mixture of isomers) [Example 7, 1-[(2R)-2-[[4-[[3-[rac-1,2-dideuterio-1-methyl-ethyl]-6-(trifluoromethyl)imidazo[1,2-a]pyridin-8-yl]amino]-1-piperidyl]methyl]morpholin-4-yl]prop-2-en-1-one]
6 | 41.5 nM | 367 nM | – | – | 140 nM | 7.79 µM | C=CC(=O)N1CCO[C@H](CN2CCC(Nc3cc(C(C)O)cn4c(C(C)C)cnc34)CC2)C1 (single isomer, unassigned) [Example 5]
7 | 3.96 nM | 67.4 nM | 7.91 nM | 3.79 µM | – | – | [2H]C([2H])=C([2H])C(=O)N1CCO[C@H](CN2CCC(Nc3cc(C(F)(F)F)cn4c(C(C)C)cnc34)CC2)C1 [Example 6, 2,3,3-trideuterio-1-[(2R)-2-[[4-[[3-isopropyl-6-(trifluoromethyl)imidazo[1,2-a]pyridin-8-yl]amino]-1-piperidyl]methyl]morpholin-4-yl]prop-2-en-1-one]
